Measurements from patent US11059795B2, “Androgen receptor modulators and methods for their use” (ESSA Pharma, Inc., priority 2018, dated 2021).

How the values were obtained:
[1] = molecular target: T1, LBD of androgen receptor (AR) fused to DBD of GAL4 (Homo sapiens, UniProt P10275); assay: LBD-expressing reporter assay (GeneBLAzer), AR LBD; format: cell-based; conditions: inhibition of maximal activity attained with agonist; read-out: Steroid Receptor LBD IC50 (μM) AR
T1 sequence (P10275 669-900 limits assumed): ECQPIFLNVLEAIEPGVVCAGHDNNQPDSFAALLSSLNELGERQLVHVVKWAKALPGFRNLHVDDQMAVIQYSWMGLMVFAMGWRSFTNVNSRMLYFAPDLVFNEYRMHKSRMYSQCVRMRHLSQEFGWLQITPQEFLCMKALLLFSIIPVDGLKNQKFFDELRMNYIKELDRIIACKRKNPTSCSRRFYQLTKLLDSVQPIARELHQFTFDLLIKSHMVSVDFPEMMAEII
Description: (§1) This assay uses cells that stably express a chimera fusion protein comprising the LBD of a steroid hormone receptor fused to the DNA-binding domain (DBD) of GAL4 along with beta-lactamase reporter under transcriptional control of an upstream activator sequence (UAS). When agonist binds to the LBD of the GAL4 (DBD)-steroid hormone (LBD) chimera fusion protein, the protein binds to the UAS, resulting in expression of beta-lactamase. LBDs of androgen receptor (AR), progesterone receptor-beta (PRβ), glucocorticoid receptor (GR), estrogen receptor-α (ERα), and estrogen receptor-β (ERβ) were tested and IC50s calculated for inhibiting maximal activity attained with agonist.

[2] = molecular target: T2, LBD of estrogen receptor-α (ERα) fused to DBD of GAL4 (Homo sapiens, UniProt P03372); assay: LBD-expressing reporter assay (GeneBLAzer), ERα LBD; format: cell-based; conditions: inhibition of maximal activity attained with agonist; read-out: Steroid Receptor LBD IC50 (μM) ERα
T2 sequence (P03372 311-547 limits assumed): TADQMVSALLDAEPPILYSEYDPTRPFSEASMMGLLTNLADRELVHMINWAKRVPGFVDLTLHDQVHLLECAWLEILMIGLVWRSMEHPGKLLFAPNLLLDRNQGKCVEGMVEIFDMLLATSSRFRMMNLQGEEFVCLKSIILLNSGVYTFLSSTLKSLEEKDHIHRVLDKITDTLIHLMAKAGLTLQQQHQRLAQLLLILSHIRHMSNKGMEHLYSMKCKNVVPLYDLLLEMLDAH
Description: as §1

[3] = Microsomal stability assay, mouse liver microsomes; format: in vitro ADME; conditions: for microsomal CLint at 1 μM: mouse, liver microsomes, pH 7.4, mouse liver microsomes, 1 μM compound, 0.5 mg/mL protein, 37° C., read-out: MLM +30/− NADPH: Clint (μL/min/mg protein); for half-life at 1 μM: pH 7.4, mouse liver microsomes, read-out: Liver microsome T½ (min) Mouse
Outline: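 Compound at 1 μM was incubated at 37° C with 0.5 mg/mL liver microsomes and 1 mM NADPH and/or 1 mM UDPGA (with alamethicin) in 100 mM potassium phosphate pH 7.4, 3 mM MgCl2. Samples were taken at 0, 15, 30 and 60 min and measured by LC/MS/MS. t½ came from compound loss relative to 0 min, and Clint was scaled with 45 mg microsomal protein/g liver.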

[4] = Hepatocyte stability assay, human hepatocytes; format: in vitro ADME; conditions: cryopreserved hepatocytes, read-out: Hepatocytes T½ (min) Human
Description: The […] of in vitro intrinsic clearance (Clint) for drug candidates in the early discovery stage is common practice in the pharmaceutical industry. The Clint values of drug candidates can help to confirm whether metabolism is the main clearance pathway when it is compared with the total body clearance in vivo. Hepatocytes are among the routinely used in vitro systems for measuring clearance. Hepatocytes have been reported to retain most of the phase I and phase II metabolic activities, and therefore, it is a useful tool to estimate the intrinsic clearance for potential drug candidates.
Metabolic stability of testing compound were be evaluated using human and mouse hepatocytes and can also be use rat, mouse, or other animal hepatocytes to predict intrinsic clearance. Cryopreserved hepatocytes were removed from the liquid nitrogen tank and thawed in a 37° C. water bath. As soon as the cells pulled away from the vial wall, they were decanted into 48 ml of warm HT medium. Cells were centrifuged for four minutes at 420 rpm (50 g). After removing the supernatant, pellet was re-suspended in warm DMEM medium. Cell density was counted by a hemacytometer.
The assay was carried out in 96-well microtiter plates. Compounds were incubated for 0, 60, 120, and 180 minutes at 37° C. with hepatocytes. Reaction mixtures (50 μL) contained a final concentration of 1 μM test compound, 0.5 million cells/mL hepatocytes in the DMEM medium. At each of the time points (for example, 0, 1, 2, and 3 hours), 200 μL of quench solution (100% acetonitrile with 0.1% formic acid) with internal standard was transferred to each well. Midazolam was included as a positive control to verify assay performance. Plates were sealed and centrifuged at 4° C. for 15 minutes at 4000 rpm. The supernatant is transferred to fresh plates for LC/MS/MS analysis.
Summarized conditions (customizable): [Compound]=[…], Positive control: midazolam and/or naloxone, [Hepatocyte]=0.5 million cells/Ml, time=0, 60, 120, and 180 min, t=37° C.
All samples were analyzed on LC/MS/MS using an AB Sciex API 4000 instrument, coupled to a Shimadzu LC-20AD LC Pump system. Analytical samples were separated using a Waters Atlantis T3 dC18 reverse phase HPLC column (20 mm×2.1 mm) at a flow rate of 0.5 mL/min. The mobile phase consisted of 0.1% formic acid in water (solvent A) and 0.1% formic acid in 100% acetonitrile (solvent B).
The extent of metabolism was calculated as the disappearance of the test compound, compared to the 0-min control reaction incubations. Initial rates were calculated for the compound concentration and used to determine t½ values and subsequently, the intrinsic clearance, Clint. Clint=(0.693)(1/t½(min))(mL incubation/million cells)

| Structure (SMILES) | IC50 [1] [µM] | IC50 [2] [µM] | microsomal CLint at 1 μM [3] [µL/min/mg] | half-life at 1 μM [3] [min] | half-life at 1 μM [4] [min] |
| --- | --- | --- | --- | --- | --- |
| CC(C)(c1ccc(OCc2ccnc(NS(C)(=O)=O)n2)cc1)c1cc(Cl)c(OCCCl)c(C#N)c1 [Compound A109, N-(4-((4-(2-(3-chloro-4-(2-chloroethoxy)-5-cyanophenyl)propan-2-yl)phenoxy)methyl)pyrimidin-2-yl)methanesulfonamide] | > 10 | > 10 | < 12 | > 120 | > 360 |
| CC(C)(c1ccc(OCc2ocnc2S(C)(=O)=O)cc1)c1cc(Cl)c(OCCCl)c(C#N)c1 [Compound A28, 3-chloro-2-(2-chloroethoxy)-5-(2-(4-((4-(methylsulfonyl)oxazol-5-yl)methoxy)phenyl)propan-2-yl)benzonitrile] | > 10 | > 10 | 12 to 48 | 74 | > 360 |
| CC(C)(c1ccc(OCc2ncc(S(C)(=O)=O)s2)cc1)c1cc(Cl)c(OCCCl)c(C#N)c1 [Compound A93, 3-chloro-2-(2-chloroethoxy)-5-(2-(4-((5-(methylsulfonyl)thiazol-2-yl)methoxy)phenyl)propan-2-yl)benzonitrile] | > 10 | > 10 | < 12 | > 120 | > 360 |
| CCS(=O)(=O)Nc1nccc(COc2ccc(C(C)(C)c3cc(Cl)c(OCCCl)c(C#N)c3)cc2)n1 [Compound A131] | – | – | < 12 | – | – |
| CC(C)(c1ccc(OCc2ccnc(NS(C)(=O)=O)n2)cc1)c1cc(Cl)c(OCCCl)c(Cl)c1 [Compound A74, N-(4-((4-(2-(3,5-dichloro-4-(2-chloroethoxy)phenyl)propan-2-yl)phenoxy)methyl)pyrimidin-2-yl)methanesulfonamide] | > 10 | > 10 | < 12 | > 120 | > 360 |
| C[C@H](Oc1ccc(C(C)(C)c2cc(Cl)c(OCCCl)c(C#N)c2)cc1)c1ccnc(NS(C)(=O)=O)n1 (single isomer, unassigned) [Compound A170] | – | – | < 12 | – | – |

The remaining lines, values ahead:

| IC50 [1] [µM] | IC50 [2] [µM] | microsomal CLint at 1 μM [3] [µL/min/mg] | half-life at 1 μM [3] [min] | half-life at 1 μM [4] [min] | Structure (SMILES) |
| --- | --- | --- | --- | --- | --- |
| – | – | 12 to 48 | – | – | CC(C)(c1ccc(OCc2nc(S(C)(=O)=O)cs2)cc1)c1cc(Cl)c(OCCCl)c(C#N)c1 [Compound A136, 3-Chloro-2-(2-chloroethoxy)-5-(2-(4-((4-(methylsulfonyl)thiazol-2-yl)methoxy)phenyl)propan-2-yl)benzonitrile] |
| > 10 | > 10 | < 12 | > 120 | > 360 | CC(C)(c1ccc(OCc2coc(NS(C)(=O)=O)n2)cc1)c1cc(Cl)c(OCCCl)c(Cl)c1 [Compound A38, N-(4-((4-(2-(3,5-dichloro-4-(2-chloroethoxy)phenyl)propan-2-yl)phenoxy)methyl)oxazol-2-yl)methanesulfonamide] |
| – | – | < 12 | – | – | CCS(=O)(=O)Nc1nc(COc2ccc(C(C)(C)c3cc(Cl)c(OCCCl)c(C#N)c3)cc2)co1 [Compound A126] |
| > 10 | > 10 | < 12 | > 120 | 290 | CC(C)(c1ccc(OCc2ocnc2S(C)(=O)=O)cc1)c1cc(Cl)c(OCCCl)c(Cl)c1 [Compound A13, 5-((4-(2-(3,5-dichloro-4-(2-chloroethoxy)phenyl)propan-2-yl)phenoxy)methyl)-4-(methylsulfonyl)oxazole] |
| 9.83 | 5.82 | – | – | > 360 | CC(C)(c1ccc(OC[C@H](O)CNS(C)(=O)=O)cc1)c1cc(Cl)c(OC[C@H](O)CCl)c(Cl)c1 [X, reference compound] |
| – | – | 12 to 48 | – | – | Cc1cnc(NS(C)(=O)=O)nc1COc1ccc(C(C)(C)c2cc(Cl)c(OCCCl)c(C#N)c2)cc1 [Compound A122, N-(4-((4-(2-(3-Chloro-4-(2-chloroethoxy)-5-cyanophenyl)propan-2-yl)phenoxy)methyl)-5-methylpyrimidin-2-yl)methanesulfonamide] |
